Where a name gives a salt, the structure may show the parent alone.

In this test the target is T1, human protease activated receptor 1 (PAR1) (Homo sapiens, UniProt P25116).
T1 construct: the cell stably expresses the endogenous human PAR1 receptor and the endogenous purinergic receptor P2Y2; endogenous in cells; host or cells: HEK293-derived recombinant cell line constitutively expressing mitochondrial aequorin
T1 sequence (P25116 22-425): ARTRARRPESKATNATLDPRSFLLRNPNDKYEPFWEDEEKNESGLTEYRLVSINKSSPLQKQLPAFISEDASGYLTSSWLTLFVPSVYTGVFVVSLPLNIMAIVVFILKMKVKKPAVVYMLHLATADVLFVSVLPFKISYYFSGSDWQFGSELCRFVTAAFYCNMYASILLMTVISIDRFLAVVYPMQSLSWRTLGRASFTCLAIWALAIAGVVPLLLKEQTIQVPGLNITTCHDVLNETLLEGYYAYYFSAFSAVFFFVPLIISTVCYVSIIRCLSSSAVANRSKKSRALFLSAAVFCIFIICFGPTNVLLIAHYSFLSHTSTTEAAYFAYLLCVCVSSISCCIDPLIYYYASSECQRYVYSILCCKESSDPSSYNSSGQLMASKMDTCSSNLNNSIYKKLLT
The test is described as follows: Cellular functional in vitro test (aequorin luminescence, PAR1 test cell). The class given is cell-based. The following applies: recombinant HEK293-derived cell line expressing aequorin; PAR1 agonist added at its EC50 5 minutes after test substance. The text has this:
1.a) Cellular Functional In vitro Test
A recombinant cell line is used to identify […] of the human protease activated receptor 1 (PAR1) and to quantify the activity of the substances described herein. The cell is originally derived from a human embryonal kidney cell (HEK293; ATCC: American Type Culture Collection, Manassas, Va. 20108, USA). The test cell line constitutively expresses a modified form of the calcium-sensitive photoprotein aequorin which, after reconstitution with the cofactor coelenterazine, emits light when the free calcium concentration in the inner mitochondrial compartment is increased (Rizzuto R, Simpson A W, Brini M, Pozzan T.; Nature 1992, 358, 325-327). Additionally, the cell stably expresses the endogenous human PAR1 receptor and the endogenous purinergic receptor P2Y2. The resulting PAR1 test cell responds to stimulation of the endogenous PAR1 or P2Y2 receptor with an intracellular release of calcium ions, which can be quantified through resulting aequorin luminescence with a suitable luminometer (Milligan G, Marshall F, Rees S, Trends in Pharmacological Sciences 1996, 17, 235-237).
For testing the substance specificity, its effect after activation of the endogenous PAR1 receptor is compared to the effect after activation of the endogenous purinergic P2Y2 receptor which utilizes the same intracellular signal path.
Test procedure: The cells are plated out two days (48 hours) before the test in culture medium (DMEM F12, supplemented with 10% FCS, 2 mM glutamine, 20 mM HEPES, 1.4 mM pyruvate, 0.1 mg/ml gentamycin, 0.15% Na bicarbonate; BioWhittaker Cat.# BE04-687Q; B-4800 Verviers, Belgium) in 384-well microtitre plates and kept in a cell incubator (96% atmospheric humidity, 5% V/V CO2, 37° C.). On the day of the test, the culture medium is replaced by a tyrode solution (in mM: 140NaCl, 5l KCl, 1MgCl2, 2CaCl2, 20 glucose, 20 HEPES), which additionally contains the cofactor coelenterazine (25 μM) and glutathione (4 mM), and the microtitre plate is then incubated for a further 3-4 hours. The test substances are then pipetted onto the microtitre plate, and 5 minutes after the transfer of the test substances into the wells of the microtitre plate the plate is transferred into the luminometer, a PAR1 agonist concentration which corresponds to the EC50 is added and the resulting light signal is immediately measured in the luminometer. To distinguish an antagonist substance action from a toxic action, the endogenous purinergic receptor is immediately subsequently activated with agonist (ATP, final concentration 10 μM) and the resulting light signal is measured.
For orientation: IC50 means the concentration needed to halve the response being measured. For `Cc1ccncc1-c1noc(C2CC(c3ccc(C(F)(F)F)cc3)CN(C(=O)N3CCOCC3)C2)n1` (racemic) [Example 329, {3-[3-(4-Methylpyridin-3-yl)-1,2,4-oxadiazol-5-yl]-5-[4-(trifluoromethyl)phenyl]piperidin-1-yl}-(morpholin-4-yl)methanone], the IC50 was 24 nM.
Regarding `CN(C)Cc1nnc(C2CC(c3ccc(OC(F)(F)F)cc3)CN(C(=O)N3CCOCC3)C2)o1` (racemic) [Example 470, {3-{5-[(Dimethylamino)methyl]-1,3,4-oxadiazol-2-yl}-5-[4-(trifluoromethoxy)phenyl]piperidin-1-yl}(morpholin-4-yl)methanone], the IC50 turned out to be 4.16 nM.
Consider `CC(C)Cc1nnc(C2CC(c3ccc(OC(F)(F)F)cc3)CN(C(=O)N3CCOCC3)C2)o1` (racemic) [Example 474, {3-[5-(2-Methylpropyl)-1,3,4-oxadiazol-2-yl]-5-[4-(trifluoromethoxy)phenyl]piperidin-1-yl}-(morpholin-4-yl)methanone], for which the IC50 is 23.4 nM.
For `CCSCc1csc(C2CC(c3ccc(CC)cc3)CN(C(=O)N3CCOCC3)C2)n1` (racemic) [Example 484, [3-(4-Ethylphenyl)-5-{4-[(ethylsulphanyl)methyl]-1,3-thiazol-2-yl}piperidin-1-yl](morpholin-4-yl)methanone], the IC50 worked out at 76.6 nM.
For `CC(C)(C)c1csc(C2CC(c3ccc(OC(F)(F)F)cc3)CN(C(=O)N3CCOCC3)C2)n1` (racemic) [Example 487, {3-(4-tert-Butyl-1,3-thiazol-2-yl)-5-[4-(trifluoromethoxy)phenyl]piperidin-1-yl}(morpholin-4-yl)-methanone], the IC50 was 107 nM.
Turning to `CCc1csc(C2CC(c3ccc(OC(F)(F)F)cc3)CN(C(=O)N3CCOCC3)C2)n1` (racemic) [Example 490, {3-(4-Ethyl-1,3-thiazol-2-yl)-5-[4-(trifluoromethoxy)phenyl]piperidin-1-yl}(morpholin-4-yl)-methanone], the IC50 amounted to 25.1 nM.
For the compound `CC(C)c1nnc(C2CC(c3ccc(OC(F)(F)F)cc3)CN(C(=O)N3CCOCC3)C2)s1` (racemic) [Example 494, Morpholin-4-yl{3-[5-(propan-2-yl)-1,3,4-thiadiazol-2-yl]-5-[4-(trifluoromethoxy)phenyl]piperidin-1-yl}methanone], the IC50 was 5.67 nM.
In the case of `O=C(N1CCOCC1)N1CC(c2ccc(OC(F)(F)F)cc2)CC(c2nnc(-c3ccccc3)s2)C1` (racemic) [Example 495, Morpholin-4-yl{3-(5-phenyl-1,3,4-thiadiazol-2-yl)-5-[4-(trifluoromethoxy)phenyl]piperidin-1-yl}-methanone], the IC50 was found to be 3.51 nM.
Then `O=C(N1CCOCC1)N1CC(c2ccc(OC(F)(F)F)cc2)CC(c2nc(C3CCC3)no2)C1` (racemic) [Example 513, {3-(3-Cyclobutyl-1,2,4-oxadiazol-5-yl)-5-[4-(trifluoromethoxy)phenyl]piperidin-1-yl}(morpholin-4-yl)methanone], with 5.16 nM; and `CCc1noc(C2CC(c3ccc(OC(F)(F)F)cc3)CN(C(=O)N3CCC(C#N)CC3)C2)n1` (racemic) [Example 519, 1-({3-(3-Ethyl-1,2,4-oxadiazol-5-yl)-5-[4-(trifluoromethoxy)phenyl]piperidin-1-yl}carbonyl)-piperidine-4-carbonitrile], with 20.8 nM.
Take `CC(C)c1noc(C2CC(c3ccc(OC(F)(F)F)cc3)CN(C(=O)N3CCC(C#N)CC3)C2)n1` (racemic) [Example 520, 1-({3-[3-(Propan-2-yl)-1,2,4-oxadiazol-5-yl]-5-[4-(trifluoromethoxy)phenyl]piperidin-1-yl}-carbonyl)piperidine-4-carbonitrile]: the IC50 turned out to be 11 nM.
Take `CN(C)Cc1nc(C2CC(c3ccc(C(F)(F)F)cc3)CN(C(=O)N3CCOCC3)C2)no1` (single isomer, unassigned) [Example 170, {3-{5-[(Dimethylamino)methyl]-1,2,4-oxadiazol-3-yl}-5-[4-(trifluoromethyl)phenyl]piperidin-1-yl}(morpholin-4-yl)methanone hydrochloride]: the IC50 was found to be 18.8 nM.
Consider `COCCc1noc(C2CC(c3ccc(OC(F)(F)F)cc3)CN(C(=O)N3CCOCC3)C2)n1` (single isomer, unassigned) [Example 178, {3-[3-(2-Methoxyethyl)-1,2,4-oxadiazol-5-yl]-5-[4-(trifluoromethoxy)phenyl]piperidin-1-yl}-(morpholin-4-yl)methanone], for which the IC50 was found to be 17.1 nM.
Consider `COCCc1noc(C2CC(c3cccc(OC(F)(F)F)c3)CN(C(=O)N3CCOCC3)C2)n1` (single isomer, unassigned) [Example 194, {3-[3-(2-Methoxyethyl)-1,2,4-oxadiazol-5-yl]-5-[3-(trifluoromethoxy)phenyl]piperidin-1-yl}-(morpholin-4-yl)methanone], for which the IC50 turned out to be 66.1 nM.
With `Cc1noc(C2CC(c3ccc(OC(F)(F)F)cc3)CN(C(=O)N3CCOCC3)C2)n1` (single isomer, unassigned) [Example 239, {3-(3-Methyl-1,2,4-oxadiazol-5-yl)-5-[4-(trifluoromethoxy)phenyl]piperidin-1-yl}(morpholin-4-yl)methanone], the IC50 worked out at 5.74 nM.
Then `Cc1noc(C2CC(c3ccc(C(F)(F)F)cc3)CN(C(=O)N3CCC(O)CC3)C2)n1` (single isomer, unassigned) [Example 260, (4-Hydroxypiperidin-1-yl){(3-(3-methyl-1,2,4-oxadiazol-5-yl)-5-[4-trifluoromethyl)phenyl]-piperidin-1-yl}methanone], with 11.4 nM; and `COCCc1noc(C2CC(c3ccc(C(F)(F)F)cc3)CN(C(=O)N3CCC(O)CC3)C2)n1` (single isomer, unassigned) [Example 275, (4-Hydroxypiperidin-1-yl) {3-[3-(2-methoxyethyl)-1,2,4-oxadiazol-5-yl]-5-[4-(trifluoromethyl)-phenyl]piperidin-1-yl}methanone], with 10.3 nM; and `COCCc1noc(C2CC(c3ccc(C(F)(F)F)cc3)CN(C(=O)N3CCC(O)CC3)C2)n1` (single isomer, unassigned) [Example 276, (4-Hydroxypiperidin-1-yl) {3-[3-(2-methoxyethyl)-1,2,4-oxadiazol-5-yl]-5-[4-(trifluoromethyl)-phenyl]piperidin-1-yl}methanone], with 25.3 nM.
In the case of `COCCc1noc(C2CC(c3ccc(C(F)(F)F)cc3)CN(C(=O)N3CC(O)C3)C2)n1` (single isomer, unassigned) [Example 279] it was 14.7 nM; in that of `COCCc1noc(C2CC(c3ccc(OC(F)(F)F)c(C)c3)CN(C(=O)N3CCOCC3)C2)n1` (single isomer, unassigned) [Example 322, {3-[3-(2-Methoxyethyl)-1,2,4-oxadiazol-5-yl]-5-[3-methyl-4-(trifluoromethoxy)phenyl]piperidin-1-yl}(morpholin-4-yl)methanone], 3.01 nM; in that of `Cc1noc(C2CC(c3ccc(C(F)(F)F)cc3)CN(C(=O)N3CCOCC3)C2)n1` (single isomer, unassigned) [Example 335, {3-(3-Methyl-1,2,4-oxadiazol-5-yl)-5-[4-(trifluoromethyl)phenyl]piperidin-1-yl}(morpholin-4-yl)-methanone], 25.1 nM.
Then `COCCc1noc(C2CC(c3ccc(OC(F)(F)F)cc3)CN(C(=O)N3CCC(O)CC3)C2)n1` (single isomer, unassigned) [Example 449, (4-Hydroxypiperidin-1-yl) {3-[3-(2-methoxyethyl)-1,2,4-oxadiazol-5-yl]-5-[4-(trifluoromethoxy)-phenyl]piperidin-1-yl}methanone], with 86.3 nM.

For the origin of these results see patent US8119663B2, “Heteroaryl-substituted piperidines” (Bayer Pharma Aktiengesellschaft, priority 2007, dated 2012).
